# Experimental data: the supplement of paper PMC10307832
# How the values were obtained:
# Experiment in all cases: relative viability (nuclei count vs DMSO), 5 days (fraction); higher = more cells survive
# NCI-H2342 = tested on: NCI-H2342
# How it was run: (§1)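 Relative viability is defined as nuclei in treated wells over nuclei in vehicle wells. Duplicate plates were run and medians reported. Lung cancer cell lines in 1536-well plates were dosed by pin tool one day after seeding, with one drug or with a fixed anchor-drug dose plus five library-drug doses (not always all listed) in √10 steps, and nuclei were counted after 5 days.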
# NCI-H1975 = tested on: NCI-H1975
# How it was run: as §1
# NCI-H1650 = tested on: NCI-H1650
# How it was run: as §1
# BEN = tested on: BEN
# How it was run: as §1
# NCI-H1651 = tested on: NCI-H1651
# How it was run: as §1
# CAL-12T = tested on: CAL-12T
# How it was run: as §1
# LCLC-103H = tested on: LCLC-103H
# How it was run: as §1
# NCI-H1563 = tested on: NCI-H1563
# How it was run: as §1
# NCI-H2085 = tested on: NCI-H2085
# How it was run: as §1
# NCI-H1355 = tested on: NCI-H1355
# How it was run: as §1
# LOU-NH91 = tested on: LOU-NH91
# How it was run: as §1
# NCI-H838 = tested on: NCI-H838
# How it was run: as §1
# NCI-H358 = tested on: NCI-H358
# How it was run: as §1
# NCI-H2023 = tested on: NCI-H2023
# How it was run: as §1
# HCC-15 = tested on: HCC-15
# How it was run: as §1
# HCC-366 = tested on: HCC-366
# How it was run: as §1
# NCI-H441 = tested on: NCI-H441
# How it was run: as §1
# NCI-H460 = tested on: NCI-H460
# How it was run: as §1
# NCI-H1395 = tested on: NCI-H1395
# How it was run: as §1
# HCC-44 = tested on: HCC-44
# How it was run: as §1
# NCI-H1734 = tested on: NCI-H1734
# How it was run: as §1
# EKVX = tested on: EKVX
# How it was run: as §1
# NCI-H1755 = tested on: NCI-H1755
# How it was run: as §1
# NCI-H1437 = tested on: NCI-H1437
# How it was run: as §1
structure (smiles),measurement,setting,value
Clc1ccc(Nc2nnc(Cc3ccncc3)c3ccccc23)cc1 [Vatalanib] + N=C(N)NC(=N)NCCc1ccccc1 [Phenformin] (partner 250 µM),relative viability,NCI-H2342; first compound 0.04 µM,0.573
same,relative viability,NCI-H2342; first compound 0.1265 µM,0.477
same,relative viability,NCI-H2342; first compound 0.4 µM,0.461
same,relative viability,NCI-H2342; first compound 1.265 µM,0.652
same,relative viability,NCI-H2342; first compound 4 µM,0.53
same,relative viability,NCI-H1975; first compound 0.04 µM,0.405
same,relative viability,NCI-H1975; first compound 0.1265 µM,0.415
same,relative viability,NCI-H1975; first compound 0.4 µM,0.422
same,relative viability,NCI-H1975; first compound 1.265 µM,0.357
same,relative viability,NCI-H1975; first compound 4 µM,0.4
same,relative viability,NCI-H1650; first compound 0.04 µM,0.401
same,relative viability,NCI-H1650; first compound 0.1265 µM,0.307
same,relative viability,NCI-H1650; first compound 0.4 µM,0.36
same,relative viability,NCI-H1650; first compound 1.265 µM,0.364
same,relative viability,NCI-H1650; first compound 4 µM,0.403
same,relative viability,BEN; first compound 0.04 µM,0.29
same,relative viability,BEN; first compound 0.1265 µM,0.233
same,relative viability,BEN; first compound 0.4 µM,0.274
same,relative viability,BEN; first compound 1.265 µM,0.231
same,relative viability,BEN; first compound 4 µM,0.306
same,relative viability,NCI-H1651; first compound 0.04 µM,0.342
same,relative viability,NCI-H1651; first compound 0.1265 µM,0.29
same,relative viability,NCI-H1651; first compound 0.4 µM,0.311
same,relative viability,NCI-H1651; first compound 1.265 µM,0.312
same,relative viability,NCI-H1651; first compound 4 µM,0.405
same,relative viability,CAL-12T; first compound 0.04 µM,0.633
same,relative viability,CAL-12T; first compound 0.1265 µM,0.495
same,relative viability,CAL-12T; first compound 0.4 µM,0.328
same,relative viability,CAL-12T; first compound 1.265 µM,0.539
same,relative viability,CAL-12T; first compound 4 µM,0.567
same,relative viability,LCLC-103H; first compound 0.04 µM,0.339
same,relative viability,LCLC-103H; first compound 0.1265 µM,0.306
same,relative viability,LCLC-103H; first compound 0.4 µM,0.373
same,relative viability,LCLC-103H; first compound 1.265 µM,0.363
same,relative viability,LCLC-103H; first compound 4 µM,0.316
same,relative viability,NCI-H1563; first compound 0.04 µM,0.641
same,relative viability,NCI-H1563; first compound 0.1265 µM,0.673
same,relative viability,NCI-H1563; first compound 0.4 µM,0.666
same,relative viability,NCI-H1563; first compound 1.265 µM,0.712
same,relative viability,NCI-H1563; first compound 4 µM,0.639
same,relative viability,NCI-H2085; first compound 0.04 µM,0.701
same,relative viability,NCI-H2085; first compound 0.1265 µM,0.668
same,relative viability,NCI-H2085; first compound 0.4 µM,0.734
same,relative viability,NCI-H2085; first compound 1.265 µM,0.724
same,relative viability,NCI-H2085; first compound 4 µM,0.632
same,relative viability,NCI-H1355; first compound 0.04 µM,0.511
same,relative viability,NCI-H1355; first compound 0.1265 µM,0.419
same,relative viability,NCI-H1355; first compound 0.4 µM,0.444
same,relative viability,NCI-H1355; first compound 1.265 µM,0.431
same,relative viability,NCI-H1355; first compound 4 µM,0.401
same,relative viability,LOU-NH91; first compound 0.04 µM,0.694
same,relative viability,LOU-NH91; first compound 0.1265 µM,0.679
same,relative viability,LOU-NH91; first compound 1.265 µM,0.697
same,relative viability,LOU-NH91; first compound 4 µM,0.668
same,relative viability,NCI-H838; first compound 0.04 µM,0.607
same,relative viability,NCI-H838; first compound 0.1265 µM,0.476
same,relative viability,NCI-H838; first compound 0.4 µM,0.69
same,relative viability,NCI-H838; first compound 1.265 µM,0.563
same,relative viability,NCI-H838; first compound 4 µM,0.548
same,relative viability,NCI-H358; first compound 0.04 µM,0.32
same,relative viability,NCI-H358; first compound 0.1265 µM,0.304
same,relative viability,NCI-H358; first compound 0.4 µM,0.381
same,relative viability,NCI-H358; first compound 1.265 µM,0.367
same,relative viability,NCI-H358; first compound 4 µM,0.326
same,relative viability,NCI-H2023; first compound 0.04 µM,0.447
same,relative viability,NCI-H2023; first compound 0.1265 µM,0.397
same,relative viability,NCI-H2023; first compound 0.4 µM,0.477
same,relative viability,NCI-H2023; first compound 1.265 µM,0.376
same,relative viability,NCI-H2023; first compound 4 µM,0.341
same,relative viability,HCC-15; first compound 0.04 µM,0.487
same,relative viability,HCC-15; first compound 0.1265 µM,0.46
same,relative viability,HCC-15; first compound 0.4 µM,0.441
same,relative viability,HCC-15; first compound 1.265 µM,0.443
same,relative viability,HCC-15; first compound 4 µM,0.457
same,relative viability,HCC-366; first compound 0.04 µM,0.597
same,relative viability,HCC-366; first compound 0.1265 µM,0.554
same,relative viability,HCC-366; first compound 0.4 µM,0.6
same,relative viability,HCC-366; first compound 1.265 µM,0.575
same,relative viability,HCC-366; first compound 4 µM,0.547
same,relative viability,NCI-H441; first compound 0.04 µM,0.904
same,relative viability,NCI-H441; first compound 0.1265 µM,0.761
same,relative viability,NCI-H441; first compound 0.4 µM,0.849
same,relative viability,NCI-H441; first compound 1.265 µM,0.729
same,relative viability,NCI-H441; first compound 4 µM,0.819
same,relative viability,NCI-H460; first compound 0.04 µM,0.582
same,relative viability,NCI-H460; first compound 0.1265 µM,0.539
same,relative viability,NCI-H460; first compound 0.4 µM,0.556
same,relative viability,NCI-H460; first compound 1.265 µM,0.51
same,relative viability,NCI-H460; first compound 4 µM,0.432
same,relative viability,NCI-H1395; first compound 0.04 µM,0.441
same,relative viability,NCI-H1395; first compound 0.1265 µM,0.419
same,relative viability,NCI-H1395; first compound 0.4 µM,0.437
same,relative viability,NCI-H1395; first compound 1.265 µM,0.399
same,relative viability,NCI-H1395; first compound 4 µM,0.449
same,relative viability,HCC-44; first compound 0.04 µM,0.178
same,relative viability,HCC-44; first compound 0.1265 µM,0.257
same,relative viability,HCC-44; first compound 0.4 µM,0.0876
same,relative viability,HCC-44; first compound 1.265 µM,0.182
same,relative viability,HCC-44; first compound 4 µM,0.147
same,relative viability,NCI-H1734; first compound 0.04 µM,0.459
same,relative viability,NCI-H1734; first compound 0.1265 µM,0.328
same,relative viability,NCI-H1734; first compound 0.4 µM,0.463
same,relative viability,NCI-H1734; first compound 1.265 µM,0.322
same,relative viability,NCI-H1734; first compound 4 µM,0.346
same,relative viability,EKVX; first compound 0.04 µM,0.232
same,relative viability,EKVX; first compound 0.1265 µM,0.236
same,relative viability,EKVX; first compound 0.4 µM,0.205
same,relative viability,EKVX; first compound 4 µM,0.212
same,relative viability,NCI-H1755; first compound 0.04 µM,0.613
same,relative viability,NCI-H1755; first compound 0.1265 µM,0.577
same,relative viability,NCI-H1755; first compound 0.4 µM,0.661
same,relative viability,NCI-H1755; first compound 1.265 µM,0.596
same,relative viability,NCI-H1755; first compound 4 µM,0.603
same,relative viability,NCI-H1437; first compound 0.04 µM,0.341
same,relative viability,NCI-H1437; first compound 0.1265 µM,0.281
same,relative viability,NCI-H1437; first compound 0.4 µM,0.298
same,relative viability,NCI-H1437; first compound 1.265 µM,0.247
same,relative viability,NCI-H1437; first compound 4 µM,0.273
